Here are results for 25 compounds from patent US20130150376A1, “Novel Sultam Compounds” (PFIZER INC., priority 2010, published 2013).

In the assay the target is T1, BACE1 enzyme (soluble, truncated BACE enzyme, BACE1deltaTM96His) (Homo sapiens, UniProt P56817).
T1 construct: soluble, truncated BACE enzyme (BACE1deltaTM96His); His; made in house
The experiment in a line: BACE1 Fluorescent Polarization (FP) Assay. It counts as biochemical. The conditions noted are these: geometric mean of 2-4 IC50 determinations unless footnoted (^2: 5-6 determinations; ^4: single determination). The text has this: BACE1 Fluorescent Polarization (FP) Assay
The fluorescently tagged synthetic substrate, Biotin-GLTNIKTEEISEISŶEVEFR-C[oregon green]KK-OH can be efficiently cleaved by the beta-secretase enzyme and is therefore useful to assay beta-secretase activity in the presence or absence of inhibitory compounds. The his tagged BACE1 enzyme was affinity purified material from conditioned media of CHO-K1 cells that had been transfected to express soluble, truncated BACE enzyme (BACE1deltaTM96His). Compounds were incubated in a ½ log dose response (from a top concentration of 100 μM) with BACE1 enzyme (0.1 nM final) and the biotinylated fluorescent peptide substrate (150 nM final) in assay buffer containing 100 mM sodium acetate, pH 4.5 (brought to pH with acetic acid), and 0.001% Tween-20. Total reaction volumes of 30 μL were carried out in 384-well black plates (Thermo Scientific 4318). Plates were covered and incubated for 3 hours at 37° C. The reactions were then stopped by addition of 30 μL of 1.5 μM Streptavidin (Pierce, 21125). After a 10 minute incubation at room temperature, plates were read on a PerkinElmer Envision for fluorescence polarization (Ex485 nm/Em530 nm). The activity of the beta-secretase enzyme is detected by changes in the fluorescence polarization (Δ mP) that occur when the substrate is cleaved by the enzyme.

[1] abbreviates: 8-point curve, read-out: BACE activity, 8-point curve, IC50.
The mark [2] stands for this setting: 11-point curve, read-out: BACE activity, 11-point curve, IC50.

As a reminder, the IC50 is the concentration that gives 50% inhibition.

Where a name gives a salt, the structure may show the parent alone. Read-outs that look alike come from different tables or passages of the source.

T1 sequence (P56817 46-457): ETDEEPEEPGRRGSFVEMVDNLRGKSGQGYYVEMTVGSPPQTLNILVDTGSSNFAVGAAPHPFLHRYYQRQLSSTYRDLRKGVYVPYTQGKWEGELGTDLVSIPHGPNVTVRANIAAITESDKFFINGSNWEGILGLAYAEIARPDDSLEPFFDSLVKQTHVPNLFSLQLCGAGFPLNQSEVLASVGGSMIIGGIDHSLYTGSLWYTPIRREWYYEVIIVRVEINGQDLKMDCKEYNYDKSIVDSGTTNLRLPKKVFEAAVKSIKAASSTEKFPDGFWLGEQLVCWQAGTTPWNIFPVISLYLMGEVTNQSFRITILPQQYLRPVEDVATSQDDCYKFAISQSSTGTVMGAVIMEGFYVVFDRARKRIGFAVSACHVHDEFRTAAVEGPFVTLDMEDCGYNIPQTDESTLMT

Turning to `COc1ccc2[nH]c(CN3CC[C@]4(C=CS(=O)(=O)N4c4cccc(F)c4)C[C@@H]3C)cc2c1` [Example 42, (5R,7S)-1-(3-fluorophenyl)-8-[(5-methoxy-1H-indol-2-yl)methyl]-7-methy1-2-thia-1,8-diazaspiro[4.5]dec-3-ene 2,2-dioxide], the concentration for half-maximal inhibition (IC50) came to 117 nM under setting [1] and 2220 nM under setting [2]. With `Cc1ccccc1-c1cc(CN2CC[C@]3(C=CS(=O)(=O)N3c3cccc(F)c3)C[C@@H]2C)ccc1O` [Example 25, 5-{[(5R,7S)-1-(3-fluorophenyl)-7-methyl-2,2-dioxido-2-thia-1,8-diazaspiro[4.5]dec-3-en-8-yl]methyl}-2′-methylbiphenyl-2-ol, hydrochloride salt], the IC50 came out at 14.3 nM under setting [1] and 28.4 nM under setting [2]. As for `C[C@H]1C[C@@]2(C=CS(=O)(=O)N2c2cccc(F)c2)CCN1Cc1ncoc1-c1cncs1` [Example 35, (5R,7S)-1-(3-fluorophenyl)-7-methyl-8-{[5-(1,3-thiazol-5-yl}-1,3-oxazol-4-yl]methyl}-2-thia-1,8-diazaspiro[4.5]dec-3-ene 2,2-dioxide], the IC50 was 2180 nM under setting [1] and 3000 nM under setting [2]. For the compound `CC(C)Oc1cccc(CN2CC[C@@]3(C[C@@H]2C)C(=O)CS(=O)(=O)N3c2cccc(F)c2)c1` [Example 81, (5R,7S)-1-(3-fluorophenyl)-8-(3-isopropoxybenzyl)-7-methyl-2-thia-1,8-diazaspiro[4.5]decan-4-one 2,2-dioxide], the IC50 under setting [2] amounted to 5720 nM. As for `C[C@H]1C[C@@]2(C=CS(=O)(=O)N2c2cccc(F)c2)CCN1Cc1ncoc1-c1cncnc1` [Example 23, (5R,7S)-1-(3-fluorophenyl)-7-methyl-8-[(5-pyrimidin-5-yl-1,3-oxazol-4-yl)methyl]-2-thia-1,8-diazaspiro[4.5]dec-3-ene 2,2-dioxide, hydrochloride salt], the IC50 reads like this: under setting [1], 428 nM; under setting [2], 1450 nM. The corresponding values for `Cc1ccsc1-c1ocnc1CN1CC[C@]2(C=CS(=O)(=O)N2c2cccc(F)c2)C[C@@H]1C` [Example 37, (5R,7S)-1-(3-fluorophenyl)-7-methyl-8-{[5-(3-methyl-2-thienyl)-1,3-oxazol-4-yl]methyl}-2-thia-1,8-diazaspiro[4.5]dec-3-ene 2,2-dioxide] are 1820 nM and 2840 nM. `Cc1ccccc1-c1cccc(CN2CC[C@]3(CCS(=O)(=O)N3c3cccc(F)c3)C[C@@H]2C)c1` [Example 52, (5R,7S)-1-(3-fluorophenyl)-7-methyl-8-[(2′-methylbiphenyl-3-yl)methyl]-2-thia-1,8-diazaspiro[4.5]decane 2,2-dioxide, formate salt]: under setting [1], the IC50 amounted to 40.5 nM. `C[C@H]1C[C@@]2(C=CS(=O)(=O)N2c2cccc(F)c2)CCN1Cc1ccc2[nH]ccc2c1` [Example 41, (5R,7S)-1-(3-fluorophenyl)-8-(1H-indol-5-ylmethyl)-7-methyl-2-thia-1,8-diazaspiro[4.5]dec-3-ene 2,2-dioxide]: the IC50 was 703 nM under setting [1] and 2380 nM under setting [2]. Regarding `CC(C)Oc1cccc(CN2CC[C@@]3(C[C@@H]2C)C(O)CS(=O)(=O)N3c2cccc(F)c2)c1` (stereo partly drawn) [Example 65, (5R,7S)-1-(3-fluorophenyl)-8-(3-isopropoxybenzyl)-7-methyl-2-thia-1,8-diazaspiro[4.5]decan-4-ol 2,2-dioxide], the IC50 under setting [2] came to 3160 nM. As for `CC(C)Oc1cc(CN2CC[C@]3(C=CS(=O)(=O)N3c3cccc(F)c3)C[C@@H]2C)ccc1O` [Example 9, 4-{[(5R,7S)-1-(3-ftuorophenyl)-7-methyl-2,2-dioxido-2-thia-1,8-diazaspiro[4.5]dec-3-en-8-yl]methyl}-2-isopropoxyphenol], the IC50 was determined as 23.5 nM under setting [1] and 77.9 nM under setting [2]. On to `C[C@H]1C[C@]2(CCN1Cc1ccc(O)c(C3CCC3)c1)CCS(=O)(=O)N2c1cnccn1` [Example 87, 2-cyclobutyl-4-{[(5R,7S)-7-methyl-2,2-dioxido-1-(pyrazin-2-yl)-2-thia-1,8-diazaspiro[4.5]dec-8-yl]methyl}phenol], for which the IC50 under setting [2] turned out to be 2670 nM.

Turning to `C[C@H]1C[C@@]2(C=CS(=O)(=O)N2c2cccc(F)c2)CCN1Cc1ccc(O)c(OC2CC2)c1` [Example 13, 2-(cyclopropyloxy)-4-{[(5R,7S)-1-(3-fluorophenyl)-7-methyl-2,2-dioxido-2-thia-1,8-diazaspiro[4.5]dec-3-en-8-yl]methyl}phenol, hydrochloride salt], the IC50 under setting [1] is 18.4 nM. On to `C[C@H]1C[C@@]2(C=CS(=O)(=O)N2c2cccc(F)c2)CCN1Cc1scnc1CC1CCC1` [Example 19, (5R,7S)-8-{[4-(cyclobutylmethyl)-1,3-thiazol-5-yl]methyl}-1-(3-fluorophenyl)-7-methyl-2-thia-1,8-diazaspiro[4.5]dec-3-ene 2,2-dioxide], for which the IC50 under setting [1] is 310 nM.

For the compound `C[C@H]1C[C@@]2(C=CS(=O)(=O)N2c2cccc(F)c2)CCN1Cc1ccc(O)c(C2CCCC2)c1` [Example 7, 2-cyclopentyl-4-{[(5R,7S)-1-(3-fluorophenyl)-7-methyl-2,2-dioxido-2-thia-1,8-diazaspiro[4.5]dec-3-en-8-yl]methyl}phenol], under setting [1], the IC50 was found to be 21.9 nM.

Regarding `CC(C)Oc1cccc(CN2CC[C@]3(C=CS(=O)(=O)N3c3ccc(F)c(F)c3)C[C@@H]2C)c1` [Example 68, (5R,7S)-1-(3,4-difluorophenyl)-8-(3-isopropoxybenzyl)-7-methyl-2-thia-1,8-diazaspiro[4.5]dec-3-ene 2,2-dioxide, hydrochloride salt], the concentration for half-maximal inhibition (IC50) under setting [1] was found to be 1770 nM and the half-inhibitory concentration (IC50) under setting [2] worked out at 5790 nM. The corresponding values for `C[C@H]1C[C@@]2(C=CS(=O)(=O)N2c2cccc(F)c2)CCN1Cc1ccc(O)c(C2CCCO2)c1` (single isomer, unassigned) [Example 31] are 10.5 nM and 62.6 nM. As to `C[C@H]1C[C@]2(CCN1Cc1ncoc1-c1cccnc1)CCS(=O)(=O)N2c1cccc(F)c1` [Example 32, (5R,7S)-1-(3-fluorophenyl)-7-methyl-8-[(5-pyridin-3-yl-1,3-oxazol-4-yl)methyl]-2-thia-1,8-diazaspiro[4.5]decane 2,2-dioxide, hydrochloride salt], the half-maximal inhibitory concentration (IC50) under setting [2] was 4290 nM. On to `CC(C)Cc1ocnc1CN1CC[C@]2(C=CS(=O)(=O)N2c2cccc(F)c2)C[C@@H]1C` [Example 12, (5R,7S)-1-(3-fluorophenyl)-8-[(5-isobutyl-1,3-oxazol-4-yl)methyl]-7-methyl-2-thia-1,8-diazaspiro[4.5]dec-3-ene 2,2-dioxide], for which the IC50 under setting [1] was 338 nM. Regarding `Cc1cccnc1-c1cc(CN2CC[C@]3(C=CS(=O)(=O)N3c3cccc(F)c3)C[C@@H]2C)ccc1O` [Example 74, 4-{[(5R,7S)-1-(3-fluorophenyl)-7-methyl-2,2-dioxido-2-thia-1,8-diazaspiro[4.5]dec-3-en-8-yl]methyl}-2-(3-methylpyridin-2-yl)phenol], the IC50 came out at 13.8 nM under setting [1] and 115 nM under setting [2]. As to `Cc1cccnc1-c1cccc(CN2CC[C@]3(C=CS(=O)(=O)N3c3cccc(F)c3)C[C@@H]2C)c1` [Example 77, (5R,7S)-1-(3-fluorophenyl)-7-methyl-8-[3-(3-methylpyridin-2-yl)benzyl]-2-thia-1,8-diazaspiro[4.5]dec-3-ene 2,2-dioxide, trifluoroacetic acid salt], under setting [2], the IC50 was found to be 927 nM. Still for that read-out and setting: in the case of `C[C@H]1C[C@]2(CCN1Cc1ccc(O)c(C3CCC3)c1)C(=O)CS(=O)(=O)N2c1cccc(F)c1` [Example 84, (5R,7S)-8-(3-cyclobutyl-4-hydroxybenzyl)-1-(3-fluorophenyl)-7-methyl-2-thia-1,8-diazaspiro[4.5]decan-4-one 2,2-dioxide] it was 337 nM. For `C[C@H]1C[C@@]2(C=CS(=O)(=O)N2c2cccc(F)c2)CCN1Cc1ccc(O)c(C2CCCO2)c1` (mixture of isomers) [Example 11, 4-{[(5R,7S)-1-(3-fluorophenyl)-7-methyl-2,2-dioxido-2-thia-1,8-diazaspiro[4.5]dec-3-en-8-yl]methyl}-2-(tetrahydrofuran-2-yl)phenol], the IC50 under setting [1] amounted to 53.3 nM.

Regarding `Cc1csnc1-c1cc(CN2CC[C@]3(CCS(=O)(=O)N3c3ccccn3)C[C@@H]2C)ccc1O` [Example 91, 4-{[(5R,7S)-7-methyl-2,2-dioxido-1-(pyridin-2-yl)-2-thia-1,8-diazaspiro[4.5]dec-8-yl]methyl}-2-(4-methylisothiazol-3-yl)phenol], the IC50 under setting [2] is 763 nM. Same read-out and setting: the figure for `Cc1ncsc1-c1ocnc1CN1CC[C@]2(CCS(=O)(=O)N2c2cccc(F)c2)C[C@@H]1C` [Example 59, (5R,7S)-1-(3-fluorophenyl)-7-methyl-8-{[5-(4-methyl-1,3-thiazol-5-yl)-1,3-oxazol-4-yt]methyl}-2-thia-1,8-diazaspiro[4.5]decane 2,2-dioxide, hydrochloride salt] is 8820 nM. As to `CC(C)Oc1cc(CN2CC[C@]3(CCS(=O)(=O)N3c3cccc(F)c3)C[C@@H]2C)ccc1O` [Example 1, 4-{[(5R,7S)-1-(3-Fluorophenyl)-7-methyl-2,2-dioxido-2-thia-1,8-diazaspiro[4.5]dec-8-yl]methyl}-2-isopropoxyphenol], under setting [1], the IC50 came out at 35 nM.
